# Source: PMC6539525, “Design, Synthesis, and Mechanism of Dihydroartemisinin–Coumarin Hybrids as Potential Anti-Neuroinflammatory Agents” (Molecules, 2019)
# Read-outs that look alike come from different tables or passages of the source.
# How the values were obtained:
# [1] = test system: HCT-116 cells; assay: MTT cytotoxicity in HCT-116 cells; format: cell-based; conditions: Homo sapiens
# In short: (§1)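 Standard MTT assay: cells seeded 24 h, treated with compounds at 6.25–100 μM in triplicate, then grown for 96 h total. Run under normoxia (air throughout) or hypoxia (95% N2 for 24 h, then 72 h normoxia). MTT added for 4 h, formazan dissolved in DMSO, absorbance read at 570 nm.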
# [2] = test system: IL-6 release of LPS-induced N9 cells; assay: IL-6 release of LPS-induced N9 cells (cytokine kit); format: cell-based, murine; conditions: compound 1 μM, LPS 1 μg/mL, 48 h
# Protocol: (§2) N9 cells, which were in the logarithmic phase, were incubated for 24 h by adherent culture. Subsequently, the medium was changed to new one without serum. The cells were treated with different concentration of tested compounds. After specific time in the LPS condition, the supernatants were collected and analyzed.
# (§3) The secreted level of TNF-α and IL-6 was measured using mouse Th1/Th2/Th17 Cytokine Kit, purchased from BD Pharningen. The data was analyzed by FCAP Array v3.0. IL-2, IL-4, IL-10, IL-17A, and IFN-γ were not detected in the experiment.
# [3] = NO capture analysis with sodium nitroprusside (Griess); conditions: 0.01-10 μM compound, 0.5 mM SNP solution, 1 h, room temperature
# Protocol: Sodium nitroprusside (SNP) is a NO donor. In this experiment, the reason of the DCH reducing NO level was preliminary explored. […] That means the main reason of the NO level reduction is due to species-specific effect.
# SNP was dissolved in PBS to prepare the 100 mM stock solution. In this experiment, SNP solution of […] was added to 975 μL PBS solution which included different concentration of tested compounds. After 60 min under r.t. condition, the concentration of NO2^− was tested using Griess assay.
# 6l (0.01 μM, 0.1 μM, 1 μM, and 10 μM) or 5n (0.01 μM, 0.1 μM, 1 μM, and 10 μM) was added to a concentration of 0.5 mM SNP solution. […] Data were shown as mean ± SD. *** p < 0.001 compared with control group.
# [4] = test system: TNF-α release of LPS-induced N9 cells; assay: TNF-α release of LPS-induced N9 cells (cytokine kit); format: cell-based, murine; conditions: compound 1 μM, LPS 1 μg/mL, 48 h
# Protocol: as §2, §3
# [5] = MTT cytotoxicity in N9 cells; format: cell-based, murine; conditions: mouse, N9 microglial cells, cytotoxic activity
# In short: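 N9 microglial cells seeded at 1.5–3 × 10^4 cells/mL, grown 24 h, then exposed to compounds at 6.25–100 μM in triplicate for 96 h. Viability by MTT (4 h), formazan dissolved in DMSO, absorbance at 570 nm; MTT-IC20 derived.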
# [6] = test system: MDA-MB-231 cells; assay: MTT cytotoxicity in MDA-MB-231 cells; format: cell-based; conditions: Homo sapiens
# In short: as §1
# [7] = test system: A549 cells; assay: MTT cytotoxicity in A549 cells; format: cell-based; conditions: Homo sapiens
# In short: as §1
# [8] = test system: NO release of LPS-induced microglial N9 cells; assay: Inhibition of NO release in LPS-induced N9 cells (Griess); format: cell-based, murine; conditions: Mus musculus, 1 μg/mL LPS for 48 h, NO level in medium
# In short: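 Log-phase N9 microglia were grown adherent for 24 h, switched to serum-free medium, then given test compounds under LPS stimulation. Nitrite in supernatant was quantified by Griess reaction at 540 nm; MTT-IC20 was determined to exclude cytotoxic effects.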
# [9] = test system: HT-29 cells; assay: MTT cytotoxicity in HT-29 cells; format: cell-based, Human; conditions: for IC50: Homo sapiens, MTT
smiles,measurement,setting,value
Cc1ccc2c(OCc3cn(CCO[C@H]4O[C@@H]5O[C@@]6(C)CC[C@H]7[C@H](C)CC[C@@H]([C@H]4C)[C@@]57OO6)nn3)cc(=O)oc2c1C [5n],IC50,"[1]; HCT-116, hypoxia 24 h then normoxia 72 h, read-out: IC50 HCT-116 Hypoxia",32.9 µM
same,IC50,"[1]; HCT-116, normoxia 96 h, read-out: IC50 HCT-116 Normoxia",25.6 µM
same,inhibition at 1 µM,[2]; Mus musculus,43.1%
same,IL-6,[2],656.75 ± 79.49 pg/mL
same,NO radical scavenging activity,[3],had NO radical scavenging activity
same,inhibition at 1 µM,[4]; Mus musculus,22%
same,TNF-α,[4],3508.08 ± 368.72 pg/mL
same,melting point,,91 to 93 °C
same,IC20,[5],2.44 µM
same,IC50,"[6]; MDA-MB-231, hypoxia 24 h then normoxia 72 h, read-out: IC50 MDA-MB-231 Hypoxia",11.7 µM
same,IC50,"[6]; MDA-MB-231, normoxia 96 h, read-out: IC50 MDA-MB-231 Normoxia",11 µM
same,IC50,"[7]; A549, hypoxia 24 h then normoxia 72 h, read-out: IC50 A549 Hypoxia",2.44 µM
same,IC50,"[7]; A549, normoxia 96 h, read-out: IC50 A549 Normoxia",2.11 µM
same,IC50,[8],0.22 µM
same,cell viability of HT-29 cells,"[9]; 6.25-100 μM for 48 h, MTT staining",decreased in a dose-dependent manner
same,IC50,"[9]; HT-29, hypoxia 24 h then normoxia 72 h, read-out: IC50 HT-29 Hypoxia",8.9 µM
same,IC50,"[9]; HT-29, normoxia 96 h, read-out: IC50 HT-29 Normoxia",10.2 µM
